Experimental data published in patent US20070134670A1, “Methods for prediction and prognosis of cancer, and monitoring cancer therapy” (BAYER PHARMACEUTICALS CORPORATION, priority 2003, published 2007).

Test system: stanniocalcin expression in HMVEC cells
Assay: In vitro endothelial cell gene expression profiling (Affymetrix / TaqMan), HMVEC
Format: cell-based, human
Settings: HMVECs; VEGF 10 ng/ml with heparin, 2 hours (FIG. 2A)
Text: Pooled human microvascular endothelial cells (HMVECs) or human umbilical vein endothelial cells (HUVECs) were purchased as 2 T75 flasks (Clonetics, Cambrex Corporation, East Rutherford, N.J.). Cells were expanded in fill Clonetics growth media (EGF+5% FCS) on 2% gelatin coated flasks until sufficient numbers were obtained to perform the experiment (4 flasks each at less than 6 passages). Prior to the treatments, cells were washed 2× in PBS and starved overnight in basal media (EBM+0.2% endotoxin free BSA). The next day, media was removed and replaced with 25 ml of EBM+BSA. VEGFR2 inhibitor (drug) stock was made in DMSO and added to a final concentration of 100 nm in 0.1% DMSO. Heparin was used at 1.5 U/ml final concentration. VEGF final concentration was 10 ng/ml. Drug/DMSO was added for 30 minutes prior to adding VEGF/Heparin for 2 hours. […] RNA was subsequently isolated via Qiagen midi spin kits and quantitated by OD260/280 and gel visualization and/or Agilent bioanalyzer.
Samples were organically extracted and ethanol precipitated. […] The resulting cRNA was put through RNeasy clean-up protocol, and then quantified using UV spectrophotometry. […]
A master mix of the primers at 50 μM each was prepared. The samples were analyzed by standard PCR conditions on an ABI PRISM 7700 Sequence Detector using SYBR green probes. β-actin was used as controls for loading normalization.

Substance: VEGF
- human stanniocalcin-1 expression induced after treatment with VEGF: ~20 fold
